Results taken from patent publication US9334524B2, “Methods for improving and managing nucleoside reverse-transcriptase inhibition based treatment” (priority 2011, dated 2016).
Read-outs that look alike come from different tables or passages of the source.

Key:
[1] = test system: HIV-1 reverse transcriptase; settings: Strain A#§ (dCK+, CNT2+), 200 μM, 72 hours
Protocol: HIV RT activity was determined in both strains as described in U.S. Pat. No. 5,714,313 as follows. Both HIV1 RT expressing strains were grown in SD-ura+glucose to saturation. 1 DO of saturated culture (about 10^7 cells) was seeded in 1 ml SGal-ura and grew for 6 hrs. Glucose was then added to stop RT activation. After 12 hours, induced cells were seeded at 0.2 DO/ml in SD-His media and incubated for 72 hours. Incubations were performed at 30° C. with shaking Inhibition of HIV-1 RT activity was determined by measuring the inhibition of growth in the presence 200 μM concentration of ABC (Abacavir) or TFV (Tenofovir) inhibitors, as shown in Table II.

[2] = test system: HIV-1 reverse transcriptase; settings: Strain A§§ (NT5C+, CNT2+), 200 μM, 72 hours
Protocol: HIV RT activity was determined in both strains as described in U.S. Pat. No. 5,714,313 as follows. Both HIV1 RT expressing strains were grown in SD-ura+glucose to saturation. 1 DO of saturated culture (about 10^7 cells) was seeded in 1 ml SGal-ura and grew for 6 hrs. Glucose was then added to stop RT activation. After 12 hours, induced cells were seeded at 0.2 DO/ml in SD-His media and incubated for 72 hours.

[3] = test system: HIV-1 reverse transcriptase; settings: Strain B## (dCK+, OAT1+ in genome), 100 μM, 72 hours, FIG. 2
Description: S. cerevisiae strain B (Mat a, URA+, HIS−, LEU+) was transformed, using the standard Lithium Acetate protocol, with a previously linearized by StuI restriction enzyme p426GPDhdCK plasmid that contains the nucleic acid sequences coding for dCK and ura3, and where linearization occurred within the ura3 open reading frame. The new strain (Strain B#) where integration of dCK occurred at the ura3 locus has the following phenotype (Mat a, URA−, HIS−, LEU+, dCK+).
Strain B# was genetically modified by standard methods through transformation with a PCR amplified DNA fragment. This nucleic acid fragment contains the nucleic acid sequence coding for OAT1 transporter flanked by 5′ and 3′ non-coding regions of the leu2 locus. The new modified strain where dCK and OAT1 are integrated in the yeast genome, Strain B## (Mat a, URA−, HIS−, LEU−, dCK+, OAT1+), was transformed with the plasmid pHART21 described in U.S. Pat. No. 5,714,313. HIV-1 RT activity in Strain B## was determined as described in U.S. Pat. No. 5,714,313 after 72 hours incubation in the presence of 100 μM of either AZT, ddC, ddI or d4T.

[4] = test system: HIV-1 reverse transcriptase; assay type: cell-based; settings: for inhibition of cell growth, then reverse transcription (OD @ 600 nm): Strain A# (dCK in genome, OAT1 plasmid), 100 μM, 72 hours, FIG. 1; for inhibition of HIV RT enabled by expression of OAT1: transformed yeast cell expressing OAT1
[5] = test system: HIV-1 reverse transcriptase; assay type: cell-based; settings: for % Inhibition of HIV Reverse Transcriptase activity in yeast cells: Strain A# (dCK+, CNT3+), 200 μM, 72 hours incubation; for inhibition of HIV RT enabled by expression of CNT3: transformed yeast cell expressing CNT3
[6] = test system: HIV-1 reverse transcriptase; assay type: cell-based; settings: for % Inhibition of HIV Reverse Transcriptase activity in yeast cells: Strain A (no dCK, no transporter), 200 μM, 72 hours incubation; for inhibition of cell growth, then reverse transcription (OD @ 600 nm): Strain A (not carrying dCK and OAT1), 100 μM, 72 hours, FIG. 1

SMILES	% Inhibition of HIV-1 Reverse transcriptase in modified yeast cells [1] [%]	% Inhibition of HIV-1 Reverse transcriptase in modified yeast cells [2] [%]	inhibition of cell growth (% inhibition), then reverse transcription, absorbance at 600 nm [3]	inhibition of cell growth, then reverse transcription (OD @ 600 nm) [4]	inhibition of HIV RT enabled by expression of OAT1 [4]	% Inhibition of HIV Reverse Transcriptase activity in yeast cells [5] [%]	inhibition of HIV RT enabled by expression of CNT3 [5]	% Inhibition of HIV Reverse Transcriptase activity in yeast cells [6] [%]	inhibition of cell growth, then reverse transcription (OD @ 600 nm) [6]
Nc1nc(NC2CC2)c2ncn([C@H]3C=C[C@@H](CO)C3)c2n1 [ABC, Abacavir]	87	0	–	–	–	–	–	–	–
Cc1cn([C@H]2C[C@H](N=[N+]=[N-])[C@@H](CO)O2)c(=O)[nH]c1=O [AZT, Zidovudine]	–	–	inhibits cell growth	inhibits cell growth	good inhibition	31	good inhibition	0	can not inhibit cell growth
CC(C)OC(=O)OCOP(=O)(CO[C@H](C)Cn1cnc2c(N)ncnc21)OCOC(=O)OC(C)C [TFV, Tenofovir]	96	0	–	–	–	–	–	–	–
Cc1cn([C@H]2C=C[C@@H](CO)O2)c(=O)[nH]c1=O [d4T, Stavudine]	–	–	inhibits cell growth	inhibits cell growth	good inhibition	56	good inhibition	0	can not inhibit cell growth
Nc1ccn([C@H]2CC[C@@H](CO)O2)c(=O)n1 [ddC, Zalcitabine]	–	–	inhibits cell growth	inhibits cell growth	good inhibition	–	–	–	can not inhibit cell growth
O=c1[nH]cnc2c1ncn2[C@H]1CC[C@@H](CO)O1 [ddI, Didanosine]	–	–	inhibits cell growth	inhibits cell growth	good inhibition	–	–	–	can not inhibit cell growth
